Measurements taken from paper PMC3627577 (2013).
Starred links: 1 amine or outer side, 2 acyl side, 3 side chain; linkers in the order of their positions; H or OH if unused. Positions of bridges follow the written chain, without caps; N, C: chain ends. Non-standard residues stand in square brackets, D forms with d. Residues, ends and D or L forms follow the SMILES beside them. Chains are numbered I, II in the order given. Actinocin(9to1) = Cc1c2oc3c(C)ccc(C(=O)[*:1])c3nc-2c(C(=O)[*:2])c(N)c1=O; NMeV = CN[C@H](C(=O)O)C(C)C; Sar = CNCC(=O)O

Key:
[1] = test system: (CGG)16 (DNA, repeat) CGGCGGCGGCGGCGGCGGCGGCGGCGGCGGCGGCGGCGGCGGCGGCGG; test: UV melting, 260 nm; settings: 50 mM NaCl; 20 mM Tris-HCl pH 7.3; 12 μM compound, 1 μM DNA
[2] = test system: GC2 hairpin (DNA, hairpin) ATGCGCATTGTATGCGCAT; test: SPR kinetics, bivalent ligand model; settings: 50 mM NaCl; 20 mM Tris-HCl pH 7.3; ka/kd; site 1 of 2
[3] = test system: GG2 hairpin (DNA, hairpin) ATGCGGCATTGTATGCGGCAT; test: SPR kinetics, bivalent ligand model; settings: 50 mM NaCl; 20 mM Tris-HCl pH 7.3; ka/kd; site 1 of 2
[4] = test system: GC1 hairpin (DNA, hairpin) AAAGCTTTTGTAAAGCTTT; test: SPR kinetics, 1:1 Langmuir; settings: 50 mM NaCl; 20 mM Tris-HCl pH 7.3; ka/kd
[5] = test system: AT2 hairpin (DNA, hairpin) ATGCATGCATTGTATGCATGCAT; test: SPR kinetics, bivalent ligand model; settings: 50 mM NaCl; 20 mM Tris-HCl pH 7.3; ka/kd; site 1 of 2

Row | Compound | ΔTm [1] | Ka1 [2] | Ka1 [3] | Ka1 [4] | Ka1 [5]
1 | COc1cccc2c1C(=O)c1c(O)c3c(c(O)c1C2=O)C[C@@](O)(C(C)=O)C[C@@H]3O[C@H]1C[C@H](N)[C@H](O)[C@H](C)O1 | 10.1 °C |  |  |  | 
2 | Cc1c2ccncc2c(C)c2c1[nH]c1ccccc12 | 11.8 °C |  |  |  | 
3 | Cc1c2oc3c(C)ccc(C(=O)N[C@@H]4C(=O)N[C@H](C(C)C)C(=O)N5CCC[C@H]5C(=O)N(C)CC(=O)N(C)[C@@H](C(C)C)C(=O)O[C@@H]4C)c3nc-2c(C(=O)N[C@@H]2C(=O)N[C@H](C(C)C)C(=O)N3CCC[C@H]3C(=O)N(C)CC(=O)N(C)[C@@H](C(C)C)C(=O)O[C@@H]2C)c(N)c1=O (I: T[dV]P[Sar][NMeV] / II: T[dV]P[Sar][NMeV]; ester I:1-I:C, II:1-II:C; linker I:N-II:N via Actinocin(9to1)) | 23.4 °C | 6.07e+06 M⁻¹ | 3.08e+06 M⁻¹ | 2.29e+06 M⁻¹ | 1.287e+07 M⁻¹
